Laboratory results: patent publication US8192962B2, “Processes for detecting toxic substances” (Daikin Industries, Ltd., priority 2001, dated 2012)

Tested on: Unknown protein yeast genes
Test: DNA chip mRNA expression in yeast, unknown protein yeast genes (Table 1)
Assay type: cell-based, Saccharomyces cerevisiae S288C
Procedure, shortened: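 S. cerevisiae S288C grown at 25° C. in YPD to log phase, then exposed 2 h to a toxicant at a growth-inhibiting, non-lethal concentration; untreated cells as control. Poly(A) mRNA reverse-transcribed with Cy3-dUTP or Cy5-dUTP, hybridized >12 h at 65° C. to whole-genome yeast DNA chip; value = fluorescence ratio treated/untreated.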

CCCCCCCCCCCCc1ccc(S(=O)(=O)[O-])cc1.[Na+] [(17), sodium dodecylbenzosulfonate]
The level of expressed mRNA in the presence of chemical substance/The level of expressed mRNA in the absence of chemical substance (yeast gene YKL195W, incubated two hours with chemical substance): 1.4 | The level of expressed mRNA in the presence of chemical substance/The level of expressed mRNA in the absence of chemical substance (yeast gene YKR091W, incubated two hours with chemical substance): 1.6 | The level of expressed mRNA in the presence of chemical substance/The level of expressed mRNA in the absence of chemical substance (yeast gene YLR054C, incubated two hours with chemical substance): 1.6 | The level of expressed mRNA in the presence of chemical substance/The level of expressed mRNA in the absence of chemical substance (yeast gene YLR149C, incubated two hours with chemical substance): 1.3 | The level of expressed mRNA in the presence of chemical substance/The level of expressed mRNA in the absence of chemical substance (yeast gene YLR152C, incubated two hours with chemical substance): 1.5 | The level of expressed mRNA in the presence of chemical substance/The level of expressed mRNA in the absence of chemical substance (yeast gene YLR194C, incubated two hours with chemical substance): 1.0 | The level of expressed mRNA in the presence of chemical substance/The level of expressed mRNA in the absence of chemical substance (yeast gene YLR324W, incubated two hours with chemical substance): 1.2 | The level of expressed mRNA in the presence of chemical substance/The level of expressed mRNA in the absence of chemical substance (yeast gene YLR350W, incubated two hours with chemical substance): 1.6 | The level of expressed mRNA in the presence of chemical substance/The level of expressed mRNA in the absence of chemical substance (yeast gene YLR387C, incubated two hours with chemical substance): 1.0 | The level of expressed mRNA in the presence of chemical substance/The level of expressed mRNA in the absence of chemical substance (yeast gene YLR460C): 1.0 | The level of expressed mRNA in the presence of chemical substance/The level of expressed mRNA in the absence of chemical substance (yeast gene YML117W, incubated two hours with chemical substance): 1.1 | The level of expressed mRNA in the presence of chemical substance/The level of expressed mRNA in the absence of chemical substance (yeast gene YMR009W, incubated two hours with chemical substance): 2.7 | The level of expressed mRNA in the presence of chemical substance/The level of expressed mRNA in the absence of chemical substance (yeast gene YMR067C, incubated two hours with chemical substance): 1.0 | The level of expressed mRNA in the presence of chemical substance/The level of expressed mRNA in the absence of chemical substance (yeast gene YMR090W): 1.8 | The level of expressed mRNA in the presence of chemical substance/The level of expressed mRNA in the absence of chemical substance (yeast gene YMR095C, incubated two hours with chemical substance): 1.0 | The level of expressed mRNA in the presence of chemical substance/The level of expressed mRNA in the absence of chemical substance (yeast gene YMR097C, incubated two hours with chemical substance): 1.4 | The level of expressed mRNA in the presence of chemical substance/The level of expressed mRNA in the absence of chemical substance (yeast gene YMR102C, incubated two hours with chemical substance): 2.4 | The level of expressed mRNA in the presence of chemical substance/The level of expressed mRNA in the absence of chemical substance (yeast gene YMR107W, incubated two hours with chemical substance): 1.3 | The level of expressed mRNA in the presence of chemical substance/The level of expressed mRNA in the absence of chemical substance (yeast gene YMR180C, incubated two hours with chemical substance): 1.4 | The level of expressed mRNA in the presence of chemical substance/The level of expressed mRNA in the absence of chemical substance (yeast gene YMR184W, incubated two hours with chemical substance): 1.4 | The level of expressed mRNA in the presence of chemical substance/The level of expressed mRNA in the absence of chemical substance (yeast gene YMR191W, incubated two hours with chemical substance): 1.2 | The level of expressed mRNA in the presence of chemical substance/The level of expressed mRNA in the absence of chemical substance (yeast gene YMR295C, incubated two hours with chemical substance): 2.1 | The level of expressed mRNA in the presence of chemical substance/The level of expressed mRNA in the absence of chemical substance (yeast gene YMR316W, incubated two hours with chemical substance): 6.9 | The level of expressed mRNA in the presence of chemical substance/The level of expressed mRNA in the absence of chemical substance (yeast gene YNL044W, incubated two hours with chemical substance): 3.1 | The level of expressed mRNA in the presence of chemical substance/The level of expressed mRNA in the absence of chemical substance (yeast gene YNL074C, incubated two hours with chemical substance): 1.1 | The level of expressed mRNA in the presence of chemical substance/The level of expressed mRNA in the absence of chemical substance (yeast gene YNL092W, incubated two hours with chemical substance): 1.7 | The level of expressed mRNA in the presence of chemical substance/The level of expressed mRNA in the absence of chemical substance (yeast gene YNL115C, incubated two hours with chemical substance): 1.6 | The level of expressed mRNA in the presence of chemical substance/The level of expressed mRNA in the absence of chemical substance (yeast gene YNL156C, incubated two hours with chemical substance): 1.8 | The level of expressed mRNA in the presence of chemical substance/The level of expressed mRNA in the absence of chemical substance (yeast gene YNL234W, incubated two hours with chemical substance): 1.0 | The level of expressed mRNA in the presence of chemical substance/The level of expressed mRNA in the absence of chemical substance (yeast gene YNL281W, incubated two hours with chemical substance): 0.9 | The level of expressed mRNA in the presence of chemical substance/The level of expressed mRNA in the absence of chemical substance (yeast gene YNL305C, incubated two hours with chemical substance): 1.7 | The level of expressed mRNA in the presence of chemical substance/The level of expressed mRNA in the absence of chemical substance (yeast gene YNR068C, incubated two hours with chemical substance): 1.0 | The level of expressed mRNA in the presence of chemical substance/The level of expressed mRNA in the absence of chemical substance (yeast gene YOL032W, incubated two hours with chemical substance): 1.7 | The level of expressed mRNA in the presence of chemical substance/The level of expressed mRNA in the absence of chemical substance (yeast gene YOL036W, incubated two hours with chemical substance): 1.1 | The level of expressed mRNA in the presence of chemical substance/The level of expressed mRNA in the absence of chemical substance (yeast gene YOL047C, incubated two hours with chemical substance): 1.5 | The level of expressed mRNA in the presence of chemical substance/The level of expressed mRNA in the absence of chemical substance (yeast gene YOL071W, incubated two hours with chemical substance): 1.3 | The level of expressed mRNA in the presence of chemical substance/The level of expressed mRNA in the absence of chemical substance (yeast gene YOL082W, incubated two hours with chemical substance): 1.6 | The level of expressed mRNA in the presence of chemical substance/The level of expressed mRNA in the absence of chemical substance (yeast gene YOL083W, incubated two hours with chemical substance): 1.4 | The level of expressed mRNA in the presence of chemical substance/The level of expressed mRNA in the absence of chemical substance (yeast gene YOL117W, incubated two hours with chemical substance): 1.3 | The level of expressed mRNA in the presence of chemical substance/The level of expressed mRNA in the absence of chemical substance (yeast gene YOL131W, incubated two hours with chemical substance): 1.1 | The level of expressed mRNA in the presence of chemical substance/The level of expressed mRNA in the absence of chemical substance (yeast gene YOL150C): 2.7 | The level of expressed mRNA in the presence of chemical substance/The level of expressed mRNA in the absence of chemical substance (yeast gene YOL162W, incubated two hours with chemical substance): 1.2 | The level of expressed mRNA in the presence of chemical substance/The level of expressed mRNA in the absence of chemical substance (yeast gene YOR019W, incubated two hours with chemical substance): 1.7 | The level of expressed mRNA in the presence of chemical substance/The level of expressed mRNA in the absence of chemical substance (yeast gene YOR197W, incubated two hours with chemical substance): 1.5 | The level of expressed mRNA in the presence of chemical substance/The level of expressed mRNA in the absence of chemical substance (yeast gene YPL087W, incubated two hours with chemical substance): 2.1 | The level of expressed mRNA in the presence of chemical substance/The level of expressed mRNA in the absence of chemical substance (yeast gene YPL196W, incubated two hours with chemical substance): 1.4 | The level of expressed mRNA in the presence of chemical substance/The level of expressed mRNA in the absence of chemical substance (yeast gene YPL206C, incubated two hours with chemical substance): 1.4 | The level of expressed mRNA in the presence of chemical substance/The level of expressed mRNA in the absence of chemical substance (yeast gene YPL222W, incubated two hours with chemical substance): 1.1 | The level of expressed mRNA in the presence of chemical substance/The level of expressed mRNA in the absence of chemical substance (yeast gene YPR023C, incubated two hours with chemical substance): 1.0 | The level of expressed mRNA in the presence of chemical substance/The level of expressed mRNA in the absence of chemical substance (yeast gene YPR151C, incubated two hours with chemical substance): 1.3
